Source: US11458152B2, “Use of agarobiose or agarooligosaccharide having anticariogenic activity” (Korea University Research and Business Foundation, priority 2016, dated 2022)

Experiments:
Streptococcus mutans [1] = assay: Growth inhibition of Streptococcus mutans under mixed carbon source condition, absorbance at 600 nm (Example 7); type: cell-based, Streptococcus mutans ATCC 25175
Experimental: (§1) A strain used in the present experiment was Streptococcus mutans ATCC 25175. Streptococcus mutans ATCC 25175 was pre-cultured in a brain-heart infusion (BHI) medium for 8 hours, and was washed twice with a 2 mM potassium phosphate buffer, and then main-cultured in a minimal medium prepared with reference to a previously reported document (Fujiwara et al (1978) Arch Oral Biol. 23, 601-602) at 37° C. The minimal medium contains, in a 50 mM Tris-HCl buffer (pH 7.4), 2 g/L of L-glutamic acid, 0.2 g/L of cysteine hydrochloride, 0.9 g/L of L-leucine, 1 g/L of ammonium chloride, 3.5 g/L of potassium hydrogen phosphate, 1.5 g/L of potassium dihydrogen phosphate, 4.2 g/L of sodium hydrogen carbonate, 1.2 g/L of magnesium sulfate heptahydrate, 0.02 g/L of manganese chloride tetrahydrate, 0.02 g/L of iron sulfate heptahydrate, 0.6 g/L of sodium pyruvate, 1 mg/L of riboflavin, 0.5 mg/L of thiamine hydrochloride, 0.1 mg/L of biotin, 1 mg/L of nicotinic acid, 0.1 mg/L of p-aminobenzoic acid, 0.5 mg/L of calcium pantothenate, and 1 mg/L of pyridoxine hydrochloride. Streptococcus mutans was cultured, using the method of Example 5, in 200 μl of a minimal medium containing 10 g/L of glucose and agarobiose, agarooligosaccharides, xylitol, or neoagarobiose at various concentrations in a 96-well plate, and growth inhibitory effects thereof were observed by measuring absorbance at a wavelength of 600 nm over time. The treated concentrations of agarobiose, agarooligosaccharides, xylitol, and neoagarobiose were between 0 g/L and 20 g/L.

Streptococcus mutans [2] = assay: Growth of Streptococcus mutans under single carbon source condition (Example 6); type: cell-based, Streptococcus mutans ATCC 25175; conditions: 10 g/L as single carbon source in minimal medium, cultured 14 hours
Experimental: as §1, with “hydrochloride. To verify an effect of inhibiting the growth of” for “hydrochloride.”, “under a single carbon source condition, Streptococcus mutans were cultured in a minimal medium containing each of 10 g/L of agarobiose, agarooligosaccharides, glucose, xylitol, and neoagarobiose and a carbon source-free minimal medium. They were main-cultured” for “was cultured,”, “5 for 14 hours, and a degree of the cell growth was measured by measuring the absorbance” for “5, in 200 μl”, “culture solution” for “minimal medium containing 10 g/L of glucose and agarobiose, agarooligosaccharides, xylitol, or neoagarobiose at various concentrations in a 96-well plate, and growth inhibitory effects thereof were observed by measuring absorbance”, “every two hours.” for “over time. The treated concentrations of agarobiose, agarooligosaccharides, xylitol, and neoagarobiose were between 0 g/L and 20 g/L.”

Streptococcus mutans [3] = assay: Acid production of Streptococcus mutans under mixed carbon source condition, extracellular glucose and lactic acid by HPLC (Example 8); type: cell-based, Streptococcus mutans ATCC 25175
Experimental: as §1, with “hydrochloride.” for “hydrochloride. Streptococcus mutans was cultured, using the method of Example 5, in 200 μl of a minimal medium containing 10 g/L of glucose and agarobiose, agarooligosaccharides, xylitol, or neoagarobiose at various concentrations in a 96-well plate, and growth inhibitory effects thereof were observed by measuring absorbance at a wavelength of 600 nm over time. The treated concentrations of agarobiose, agarooligosaccharides, xylitol, and neoagarobiose were between 0 g/L and 20 g/L.”
To confirm an effect of agarobiose, agarooligosaccharides, xylitol, or neoagarobiose on acid production of Streptococcus mutans, Streptococcus mutans were cultured, using the method of Example 5, in 200 μl of a minimal medium containing 10 g/L of glucose and 0 g/L, 2.5 g/L, 5 g/L, 10 g/L, or 20 g/L of agarobiose, agarooligosaccharides, or neoagarobiose, or 0 g/L, 5 g/L, 10 g/L, or 20 g/L of xylitol in a 96-well plate. After 14 hours, concentrations of extracellular glucose and produced lactic acid were measured by HPLC. A column used for HPLC analysis was Aminex HPX-87H. 0.01 N of sulfuric acid as a mobile phase was flowed at a rate of 0.5 mL/min and 65° C.

Streptococcus mutans [4] = conditions: literature (Trahan L et al); cited from earlier work
[5] = 2.5 g/L in 10 g/L glucose, 14 hours
[6] = 10 g/L in 10 g/L glucose, 14 hours
[7] = 20 g/L in 10 g/L glucose, 14 hours
[8] = mixed carbon source, 10 g/L glucose

OC[C@H]1O[C@@H](O[C@H]2[C@H]3OC[C@@H]2OC(O)[C@H]3O)[C@H](O)[C@@H](O)[C@H]1O (mixture of isomers) [agarobiose]
absorbance value after 14 hours of culture (Streptococcus mutans [1]; 2.5 g/L in 10 g/L glucose): 0.55 | degree of inhibition of growth compared with 10 g/L of xylitol (Streptococcus mutans [1]; 5 g/L in 10 g/L glucose): greater | effect on inhibiting the growth of Streptococcus mutans compared with xylitol (Streptococcus mutans [1]; same concentration, 10 g/L glucose): greater | final absorbance value compared with xylitol (Streptococcus mutans [1]; same concentration, after 14 hours of culture, 10 g/L glucose): lower | growth of Streptococcus mutans (Streptococcus mutans [2]): no growth | concentration of consumed glucose (Streptococcus mutans [3]; [5]): 6.78 g/L | concentration of produced lactic acid (Streptococcus mutans [3]; [5]): 5.65 g/L | decrease of consumed glucose compared to 0 g/L (Streptococcus mutans [3]; [5]): 19% | decrease of produced lactic acid compared to 0 g/L (Streptococcus mutans [3]; [5]): 32% | degree of inhibition of acid production compared with 10 g/L of xylitol (Streptococcus mutans [3]; 5 g/L in 10 g/L glucose): greater | amount of consumed glucose (Streptococcus mutans [3]; [6]): 4.05 g/L | amount of produced lactic acid (Streptococcus mutans [3]; [6]): 3.25 g/L | decrease of consumed glucose compared to 0 g/L (Streptococcus mutans [3]; [6]): 51.5% | decrease of produced lactic acid compared to 0 g/L (Streptococcus mutans [3]; [6]): 60% | decrease of consumed glucose compared to 0 g/L (Streptococcus mutans [3]; [7]): 58.76% | decrease of produced lactic acid compared to 0 g/L (Streptococcus mutans [3]; [7]): 68%

OC[C@H]1OC(O)[C@H](O)[C@@H](O[C@@H]2O[C@H]3CO[C@@H]([C@@H]2O)[C@@H]3O)[C@H]1O (stereo partly shown) [neoagarobiose, reference compound]
inhibition of the growth of Streptococcus mutans (Streptococcus mutans [1]; [8]): unable to inhibit | final absorbance value compared to 0 g/L (Streptococcus mutans [1]; up to 20 g/L in 10 g/L glucose): did not exhibit significant differences | change in the growth of Streptococcus mutans (Streptococcus mutans [1]; up to 20 g/L, minimal medium containing 10 g/L glucose): no significant change | growth of Streptococcus mutans (Streptococcus mutans [2]): no growth | inhibition of acid production of Streptococcus mutans (Streptococcus mutans [3]; [8]): unable to inhibit | amount of consumed glucose compared to 0 g/L (Streptococcus mutans [3]; up to 20 g/L in 10 g/L glucose): did not exhibit significant differences | amount of produced lactic acid compared to 0 g/L (Streptococcus mutans [3]; up to 20 g/L in 10 g/L glucose): did not exhibit significant differences

OC[C@@H](O)[C@H](O)[C@@H](O)CO [xylitol, reference compound]
absorbance value at 600 nm after culturing for 14 hours (Streptococcus mutans [1]; 20 g/L in 10 g/L glucose): 0.595 | growth of Streptococcus mutans (Streptococcus mutans [2]): no growth | decrease of produced lactic acid compared to 0 g/L (Streptococcus mutans [3]; 5 g/L in 10 g/L glucose, 14 hours): 30% | decrease of consumed glucose compared to 0 g/L (Streptococcus mutans [3]; [6]): 23.98% | decrease of produced lactic acid compared to 0 g/L (Streptococcus mutans [3]; [6]): 35% | decrease of consumed glucose compared to 0 g/L (Streptococcus mutans [3]; [7]): 36.41% | decrease of produced lactic acid compared to 0 g/L (Streptococcus mutans [3]; [7]): 35% | concentration needed to inhibit the growth of Streptococcus mutans (Streptococcus mutans [4]): ≥ 10 g/L
